Assay results reported in patent US5399557A, “Pyrroloazepine compound” (Suntory Limited, priority 1991, dated 1995).
Structures can show the parent of a compound that is named as a salt.

Columns and labels:
α1 receptor = assay: Anti-α1 action: norepinephrine (NE)-induced tonic contraction of isolated thoracic aorta (helical strip); set-up: species or system Hartley male guinea pig; settings: contraction induced by 10^-5 M norepinephrine taken as 100%, guinea pig thoracic aorta, 37° C, compounds marked * tested as hydrochloride; for Anti α1 action (% of Control), 10^-7 M: test drug 10^-7 M, 0.1 µM; for Anti α1 action (% of Control), 10^-8 M: test drug 10^-8 M, 0.01 µM
Experimental: The thoracic aorta of each Hartley male guinea pig (body weight: 300-500 g) was excised. A sample cut in a helical form was suspended under 1 g load in a Magnus cylinder filled with the Tyrode solution of 37° C. which had been saturated with a mixed gas consisting of 95% O2 +5% CO2. Using an isometric transducer ("TB-612J"/NIHON KOHDEN) and a pressure preamplifier ("AP-620G"/NIHON KOHDEN), variations in tension were measured. The measurement results were recorded on a thermal pen-writing recorder ("WT-647G"/NIHON KOHDEN).
Taking the tonic contraction induced by 10^- 5M norepinephrine (NE) as 100%, the percent contractions upon addition of each test drug at 10^-8 and 10^-7 M were determined as anti-α1 action.

[1] = biological target: T1, serotonin (5-HT) receptor (Cavia porcellus, UniProt A0A286Y537); assay: Anti-serotonin action (anti-5-HT action): 5-HT-induced contraction of isolated superior mesenteric artery (helical strip); set-up: species or system Hartley male guinea pig; settings: contraction induced by 10^-5 M serotonin taken as 100%, guinea pig superior mesenteric artery, 37° C, compounds marked * tested as hydrochloride; for remaining activity at 1 µM: test drug 10^-6 M, read-out: Anti 5-HT action (% of Control), 10^-6 M; for remaining activity at 0.1 µM: test drug 10^-7 M, read-out: Anti 5-HT action (% of Control), 10^-7 M
T1 construct: 5-HT-induced contraction
Experimental: (2) Anti-serotonin action (anti-5-HT action)
A sample cut in a helical form was suspended under 0.3 g load in a Magnus cylinder filled with the Tyrode solution of 37° C. which had been saturated with a mixed gas consisting of 95% O2 +5% CO2. Using an isometric transducer ("UL-10"/SHINKOH K.K.) and a pressure preamplifier ("DSA-605A"/SHINKOH K.K.), variations in tension were measured. The measurement results were recorded on a pen-writing recorder ("VP-6537A"/NATIONAL K.K.). Taking the contraction induced by 10^-5 M serotonin (5-HT) as 100%, the percent contractions induced by 10^-5 M 5-HT in the presence of each test drug at 10^-7 and 10^-6 M were determined as anti-5-HT action.

platelet aggregation = assay: Anti-platelet-aggregating action: platelet aggregation induced by ADP + 5-HT in platelet rich plasma; assay type: cell-based, Japanese white house rabbit; settings: Oryctolagus cuniculus, test drug 10^-7 M, aggregation induced by 10^-6 M ADP + 10^-5 M 5-HT, 1 mM CaCl2 CaCl2, rabbit PRP, compound marked * (45) tested as hydrochloride, read-out: Inhibitory rate of platelet aggregation (%)
Experimental: (3) Anti-platelet-aggregating action
Blood was drawn from the auricular artery of Japanese white house rabbit (male, about 3 kg), whereby a platelet rich plasma sample (PRP) was prepared. Platelet aggregating ability was measured using a platelet aggregation measuring apparatus ("PAM-SC"/MEBANIX).
Found under the presence of 1 mM of CaCl2 was a controlling action of the test drug (10^-7 M) against the maximum reaction (100%) of the platelet aggregation induced by 10^-6 M of ADP+10^-5 M of 5-HT.

T1 sequence (A0A286Y537 1-470): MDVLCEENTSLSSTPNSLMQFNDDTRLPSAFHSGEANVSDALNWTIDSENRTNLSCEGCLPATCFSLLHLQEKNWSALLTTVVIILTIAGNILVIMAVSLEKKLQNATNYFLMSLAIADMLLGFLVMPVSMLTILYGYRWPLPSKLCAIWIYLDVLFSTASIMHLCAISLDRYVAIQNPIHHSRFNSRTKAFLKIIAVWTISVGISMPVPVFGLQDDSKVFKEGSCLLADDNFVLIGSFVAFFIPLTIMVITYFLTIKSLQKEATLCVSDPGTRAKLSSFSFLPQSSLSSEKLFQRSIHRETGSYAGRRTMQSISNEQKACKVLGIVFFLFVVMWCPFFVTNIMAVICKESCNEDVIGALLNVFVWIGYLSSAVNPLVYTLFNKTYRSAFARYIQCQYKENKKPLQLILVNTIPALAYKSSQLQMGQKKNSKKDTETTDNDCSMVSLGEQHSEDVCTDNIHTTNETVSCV

Row | SMILES | Anti α1 action (% of Control), 10^-7 M (α1 receptor) | Anti α1 action (% of Control), 10^-8 M (α1 receptor) | remaining activity at 1 µM [1] [%] | remaining activity at 0.1 µM [1] [%] | inhibition at 0.1 µM (platelet aggregation) [%]
1 | CCn1ccc2c1C(=O)N(CCCN1CCN(c3ccccc3)CC1)CCC2=O [Compound No. 19, 1-Ethyl-7-[3-(4-phenylpiperazin-1-yl)propyl]-6,7-dihydropyrrolo[2,3-c]azepine-4,8(1H,5H)-dione] | 90.1 % of Control | 100.0 % of Control | 12.4 | 60.3 | –
2 | Cn1ccc2c1C(=O)N(CCCN1CCN(c3ccccc3)CC1)CCC2=O [Compound No. 18, 1-Methyl-7-[3-(4-phenylpiperazin-1-yl)propyl]-6,7-dihydropyrrolo[2,3-c]azepine-4,8(1H,5H)-dione] | 85.5 % of Control | 100.0 % of Control | 16.3 | 52.8 | –
3 | CCn1ccc2c1C(=O)N(CCCN1CCN(c3ccccc3)CC1)CCC2=NO [Compound No. 47, 1-Ethyl-4-hydroxyimino-7-[3-(4-phenylpiperazin-1-yl)propyl]-4,5,6,7-tetrahydropyrrolo[2,3-c]azepin-8(1H)-one] | 81.9 % of Control | 100.0 % of Control | – | 5.2 | 34
4 | Cn1ccc2c1C(=O)N(CCCN1CCC(c3ccccc3)CC1)CCC2=NO [Compound No. 52, 4-Hydroxyimino-1-methyl-7-[3-(4-phenylpiperidin-1-yl)propyl]-4,5,6,7-tetrahydropyrrolo[2,3-c]azepin-8(1H)-one] | 62.6 % of Control | 97.2 % of Control | 9.9 | 39.1 | –
5 | Cn1ccc2c1C(=O)N(CCCN1CCN(c3ccc(F)cc3)CC1)CCC2O (centres unmarked) [Compound No. 40, 7-[3-[4-(4-Fluorophenyl)piperazin-1-yl]propyl]-4-hydroxy-1-methyl-4,5,6,7-tetrahydropyrrolo[2,3-c]azepin-8(1H)-one] | 94.5 % of Control | 100.0 % of Control | 12.5 | 24.2 | –
6 | Cn1ccc2c1C(=O)N(CCCN1CCN(c3ccccc3)CC1)CCC2O (centres unmarked) [Compound No. 39, 4-hydroxy-1-methyl-7-[3-(4-phenylpiperazin-1-yl)propyl]-4,5,6,7-tetrahydropyrrolo[2,3-c]azepin-8(1H)-one] | 80.5 % of Control | 99.3 % of Control | 8.7 | 34.3 | 33
7 | Cn1ccc2c1C(=O)N(CCCN1CCN(c3ccccc3)CC1)CCC2=NO [Compound No. 45, 4-hydroxyimino-1-methyl-7-[3-(4-phenylpiperazin-1-yl)propyl]-4,5,6,7-tetrahydropyrrolo[2,3-c]azepin-8(1H)-one] | 23.8 % of Control | 79.8 % of Control | – | 11.2 | 30
8 | O=C1c2c(ccn2Cc2ccccc2)C(=NO)CCN1CCCN1CCN(c2ccccc2)CC1 [Compound No. 48, 1-Benzyl-4-hydroxyimino-7-[3-(4-phenylpiperazin-1-yl)propyl]-4,5,6,7-tetrahydropyrrolo[2,3-c]azepin-8(1H)-one] | 60.5 % of Control | 98.9 % of Control | 5.1 | 52.8 | –
9 | Cn1ccc2c1C(=O)N(CCCN1CCC(C(=O)c3ccc(F)cc3)CC1)CCC2=NO [Compound No. 43] | 37.9 % of Control | 73.3 % of Control | 8.7 | 43.1 | 18
10 | CON=C1CCN(CCCN2CCN(c3ccccc3)CC2)C(=O)c2c1ccn2C [Compound No. 46, 4-Methoxyimino-1-methyl-7-[3-(4-phenylpiperazin-1-yl)propyl]-4,5,6,7-tetrahydropyrrolo[2,3-c]azepin-8(1H)-one] | 28.0 % of Control | 78.7 % of Control | 12.8 | 59.5 | –
11 | O=C(c1ccc(F)cc1)C1CCN(CCn2c(=O)[nH]c3ccccc3c2=O)CC1 [Ketanserin tartrate, reference compound] | – | – | – | – | 20
12 | COc1cccc(N2CCN(CCCN3CCC(=NO)c4ccn(C)c4C3=O)CC2)c1 [Compound No. 50, 4-Hydroxyimino-7-[3-[4-(3-methoxyphenyl)piperazin-1-yl]propyl]-1-methyl-4,5,6,7-tetrahydropyrrolo[2,3-c]azepin-8(1H)-one] | 38.8 % of Control | 57.6 % of Control | 18.4 | 60 | –
